Data published in the NIST ThermoML archive (doi:10.1016/j.jct.2007.11.010).

Test: xn = mol fraction of the nth substance listed
Conditions: 101 kPa, Liquid

OCCN1CCOCC1 [4-morpholineethanol] + CCCO
mass density [kg/m3]
Conditions	293.15 K	298.15 K	303.15 K	313.15 K	323.15 K
x1 = 0.0441	830.17	823.23	815.35	807.23	799.06
x1 = 0.1025	854.6	847.85	839.76	831.61	823.54
x1 = 0.1771	883.51	877.01	868.66	860.49	852.56
x1 = 0.2366	905.01	898.71	890.18	882	874.19
x1 = 0.2772	919.15	912.99	904.34	896.16	888.43
x1 = 0.3146	931.56	925.53	916.77	908.59	900.94
x1 = 0.3771	951.28	945.46	936.54	928.37	920.85
x1 = 0.4165	962.97	957.29	948.27	940.11	932.69
x1 = 0.478	980.28	974.81	965.64	957.51	950.23
x1 = 0.5135	989.72	984.38	975.14	967.02	959.82
x1 = 0.5792	1006.06	1000.96	991.58	983.5	976.47
x1 = 0.632	1018.06	1013.14	1003.67	995.64	988.74
x1 = 0.6797	1028.12	1023.38	1013.83	1005.84	999.07
x1 = 0.7337	1038.68	1034.12	1024.5	1016.57	1009.94
x1 = 0.7753	1046.19	1041.78	1032.12	1024.22	1017.71
x1 = 0.8136	1052.76	1048.48	1038.78	1030.93	1024.51
x1 = 0.8739	1062.19	1058.11	1048.36	1040.58	1034.34
x1 = 0.9145	1067.81	1063.88	1054.1	1046.38	1040.25
x1 = 0.9442	1071.98	1068.14	1058.34	1050.66	1044.61
x1 = 0.9742	1076.35	1072.61	1062.79	1055.14	1049.16

OCCN1CCOCC1 [4-morpholineethanol] + CCO
mass density [kg/m3]
Conditions	293.15 K	298.15 K	303.15 K	313.15 K	323.15 K
x1 = 0.0543	820.46	817.03	812.82	804.96	794.75
x1 = 0.1127	851.58	847.96	843.64	835.77	824.13
x1 = 0.1873	886.91	883.05	878.64	870.75	857.23
x1 = 0.2468	911.75	907.72	903.24	895.37	880.63
x1 = 0.2874	927.58	923.45	918.93	911.07	–
x1 = 0.3248	941.14	936.91	932.36	924.52	–
x1 = 0.3873	961.89	957.52	952.92	945.11	927.56
x1 = 0.4267	973.69	969.23	964.6	956.83	938.98
x1 = 0.4882	990.98	986.4	981.73	974	955.56
x1 = 0.5237	1000.12	995.47	990.79	983.09	964.48
x1 = 0.5894	1015.56	1010.8	1006.1	998.46	–
x1 = 0.6422	1026.73	1021.89	1017.17	1009.59	–
x1 = 0.6899	1035.93	1031.02	1026.29	1018.76	1001.11
x1 = 0.7439	1045.49	1040.52	1035.78	1028.31	1011.45
x1 = 0.7855	1051.94	1046.91	1042.18	1034.76	1018.98
x1 = 0.8238	1057.63	1052.57	1047.83	1040.46	1025.59
x1 = 0.8841	1065.21	1060.1	1055.37	1048.08	1035.44
x1 = 0.9247	1069.51	1064.37	1059.65	1052.42	1041.71
x1 = 0.9544	1072.49	1067.33	1062.62	1055.43	1046.13
x1 = 0.9844	1075.58	1070.4	1065.69	1058.55	1050.45
